Reference: ChEMBL document CHEMBL5226286, “The application of isatin-based multicomponent-reactions in the quest for new bioactive and druglike molecules” (Eur J Med Chem, 2021)
Values after ≈ are worked out from the molar mass of the structure shown. One block for each molecule: values may come before it.

What was measured:
Proteus mirabilis = test: microbe, parasite or virus in culture; conditions: PTCC 1776
Description: Antimicrobial activity against Proteus mirabilis PTCC 1776 by broth disk diffusion microdilution method

[1] = tested on: Staphylococcus epidermidis; test: microbe, parasite or virus in culture; conditions: PTCC 1435
Description: Antimicrobial activity against Staphylococcus epidermidis PTCC 1435 by broth disk diffusion microdilution method

cells = assay type: functional, cell-based; conditions: Homo sapiens, HCCC9810
Description: Antiproliferative activity against human HCCC9810 cells

Huh-7 = test: cells; assay type: functional, cell-based; conditions: Homo sapiens
Description: Antiproliferative activity against human Huh-7 cells

CCRF-CEM = test: Antiproliferative activity against human CCRF-CEM cells; assay type: functional, cell-based
SK-OV-3 = test: Antiproliferative activity against human SK-OV-3 cells; assay type: functional, cell-based
A549 [2] = test: Cytotoxicity against human A549 cells; assay type: functional, cell-based
MCF7 = test: Cytotoxicity against human MCF7 cells; assay type: functional, cell-based
HeLa [3] = test: Cytotoxicity against human HeLa cells; assay type: functional, cell-based
[4] = biological target: T1, NAD-dependent protein deacetylase sirtuin-2 (Homo sapiens, UniProt Q8IXJ6); test: Inhibition of sirtuin 2 (unknown origin)
T1 sequence (Q8IXJ6 whole entry): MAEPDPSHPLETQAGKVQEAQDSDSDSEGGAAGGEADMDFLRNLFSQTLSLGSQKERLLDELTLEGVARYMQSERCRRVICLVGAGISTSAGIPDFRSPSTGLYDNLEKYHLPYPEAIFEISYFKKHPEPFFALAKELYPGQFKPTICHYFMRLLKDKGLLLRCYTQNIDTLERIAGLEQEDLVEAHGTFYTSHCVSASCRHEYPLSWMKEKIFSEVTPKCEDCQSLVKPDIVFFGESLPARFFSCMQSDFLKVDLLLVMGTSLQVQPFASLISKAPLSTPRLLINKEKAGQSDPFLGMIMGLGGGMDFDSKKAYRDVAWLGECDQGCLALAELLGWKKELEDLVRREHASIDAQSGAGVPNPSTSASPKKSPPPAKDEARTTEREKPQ

PC-3 = test: Antiproliferative activity against human PC-3 cells; assay type: functional, cell-based
K562 = test: Antiproliferative activity against human K562 cells; assay type: functional, cell-based
A549 [5] = test: Antiproliferative activity against human A549 cells; assay type: functional, cell-based
HepG2 [6] = test: cells; assay type: functional, cell-based; conditions: Homo sapiens
Description: Antiproliferative activity against human HepG2 cells

HCT-116 [7] = test: Antiproliferative activity against human HCT-116 cells; assay type: functional, cell-based
Staphylococcus aureus [8] = test: Antibacterial activity against Staphylococcus aureus by agar well diffusion method; assay type: functional
Bacillus subtilis [9] = test: Antibacterial activity against Bacillus subtilis by agar well diffusion method; assay type: functional
Escherichia coli [10] = test: Antibacterial activity against Escherichia coli by agar well diffusion method; assay type: functional
HeLa [11] = test: Growth inhibition of human HeLa cells at 20 micromol relative to control; assay type: functional; conditions: dose 20 µmol
HepG2 [12] = test: Growth inhibition of human HepG2 cells at 20 micromol relative to control; assay type: functional; conditions: dose 20 µmol
MDA-MB-231 = test: Growth inhibition of human MDA-MB-231 cells at 20 micromol relative to control; assay type: functional; conditions: dose 20 µmol
Tobacco mosaic virus [13] = test: Antiviral activity against Tobacco mosaic virus assessed as inactivation effect relative to control; assay type: functional
Tobacco mosaic virus [14] = test: Antiviral activity against Tobacco mosaic virus assessed as curative effect relative to control; assay type: functional
Tobacco mosaic virus [15] = test: Antiviral activity against Tobacco mosaic virus assessed as protection effect relative to control; assay type: functional
Bacillus subtilis [16] = test: Antibacterial activity against Bacillus subtilis; assay type: functional
Staphylococcus aureus [17] = test: microbe, parasite or virus in culture
Escherichia coli [18] = test: microbe, parasite or virus in culture
HCT-116 [19] = test: Cytotoxicity against human HCT-116 cells; assay type: functional, cell-based

- MIC (Proteus mirabilis): 16 µg/mL (≈ 35.9 µM)
- MIC [1]: 2 µg/mL (≈ 4.48 µM)
SMILES: CC1(C)CC(=O)C(=C2SC(N)=C(C#N)C3(S2)C(=O)Nc2ccc(Cl)cc23)C(=O)C1 (configuration not stated)

- IC50 (cells): 7.2 µM
- IC50 (Huh-7): 7.9 µM
SMILES: O=C1OC(c2ccccc2)=N[C@@]12[C@H](c1ccc(C(F)(F)F)cc1)[C@H]1CCCN1[C@]21C(=O)Nc2ccccc21

- IC50 (CCRF-CEM): 3.6 µM
- IC50 (SK-OV-3): 35.8 µM
SMILES: Cc1ccccc1/C=C1\CNC[C@@]2(C1=O)[C@@H](c1ccccc1C)C1CCCN1[C@]21C(=O)Nc2ccccc21 (some centres not stated)

SMILES: CCOC(=O)C1=C(C(=O)OCC)C2(C(=O)Nc3ccccc32)N2CCCC12 (configuration not stated)
- IC50 (A549 [2]): 2 µM
- IC50 (MCF7): 3.3 µM
- IC50 (HeLa [3]): 8.3 µM

SMILES: CCOC(=O)C1=C(N)Oc2cc(C)oc(=O)c2C12C(=O)N(Cc1ccccc1)c1ccccc12 (configuration not stated)
- IC50 [4]: 126 µM

- IC50 (PC-3): 13.1 µM
- IC50 (K562): 10.7 µM
- IC50 (A549 [5]): 21.5 µM
SMILES: Cc1noc([C@H]2[C@H](c3ccc(Cl)cc3Cl)CN(C)[C@]23C(=O)Nc2ccc(Cl)cc23)c1[N+](=O)[O-]

- MIC (Proteus mirabilis): 16 µg/mL (≈ 28 µM)
- MIC [1]: 8 µg/mL (≈ 14 µM)
SMILES: CC1(C)CC(=O)C(=C2SC(N)=C(C#N)C3(S2)C(=O)N(Cc2ccc(Cl)cc2Cl)c2ccccc23)C(=O)C1 (configuration not stated)

- IC50 (HepG2 [6]): 7 µM
- IC50 (HCT-116 [7]): 9 µM
- IC50 (PC-3): 6 µM
SMILES: O=C(c1c[nH]c2ccccc12)[C@@H]1[C@@H](c2ccc(Cl)cc2Cl)[C@@H]2CSCN2[C@@]12C(=O)Nc1ccccc12

- MIC (Staphylococcus aureus [8]): 16 µg/mL (≈ 30.9 µM)
- MIC (Bacillus subtilis [9]): 16 µg/mL (≈ 30.9 µM)
- MIC (Escherichia coli [10]): 128 µg/mL (≈ 247 µM)
SMILES: CC1(C)CC(=O)C2=C(C1)N(c1ccccc1)C(=O)C21C2=C(Nc3ccc([N+](=O)[O-])cc31)c1ccccc1C2=O (configuration not stated)

SMILES: N#CC1=C(N)OC2=C(CSC/C2=C/c2ccc(C(F)(F)F)cc2)C12C(=O)Nc1ccccc12 (configuration not stated)
- growth inhibition (GI) (HeLa [11]): 83.2%
- growth inhibition (GI) (HepG2 [12]): 73.1%
- growth inhibition (GI) (MDA-MB-231): 61.3%

SMILES: CNCC(=O)N[C@@H](CO)C(=O)N[C@H]1[C@H](O)[C@@H](O)[C@H](n2ccc(N)nc2=O)O[C@@H]1C(N)=O [NINGNANMYCIN]
- Activity (Tobacco mosaic virus [13]): 58.8%
- Activity (Tobacco mosaic virus [14]): 55.9%
- Activity (Tobacco mosaic virus [15]): 57.1%

SMILES: Cc1ccc(/C=C2/CN(C)CC3=C2OC(N)=C(C#N)C32C(=O)Nc3ccccc32)cc1C (configuration not stated)
- growth inhibition (GI) (HeLa [11]): 87.1%
- growth inhibition (GI) (HepG2 [12]): 70.2%
- growth inhibition (GI) (MDA-MB-231): 64.9%

- MIC (Bacillus subtilis [16]): 64 µg/mL (≈ 136 µM)
- MIC (Staphylococcus aureus [17]): 32 µg/mL (≈ 68 µM)
- MIC (Escherichia coli [18]): 128 µg/mL (≈ 272 µM)
SMILES: Cc1nn(-c2ccccc2)c2c1C1(C(=O)Nc3ccc([N+](=O)[O-])cc31)C1=C(CC(C)(C)CC1=O)O2 (configuration not stated)

SMILES: O=C(c1c(O)c2ccccc2[nH]c1=O)[C@@H]1[C@@H](c2ccccc2Cl)C(c2ccccc2)N[C@@]12C(=O)Nc1ccccc12 (some centres not stated)
- IC50 (HCT-116 [19]): 7.1 µM

- IC50 (HepG2 [6]): 5.5 µM
- IC50 (HCT-116 [7]): 7 µM
- IC50 (PC-3): 6 µM
SMILES: O=C(c1c[nH]c2ccccc12)[C@@H]1[C@@H](c2ccc(C(F)(F)F)cc2)[C@@H]2CSCN2[C@@]12C(=O)Nc1ccccc12

- MIC (Bacillus subtilis [16]): 12 µg/mL (≈ 25.2 µM)
- MIC (Staphylococcus aureus [17]): 128 µg/mL (≈ 269 µM)
- MIC (Escherichia coli [18]): 256 µg/mL (≈ 537 µM)
SMILES: Cc1nn(-c2ccccc2)c2c1C1(C(=O)Nc3ccc(Br)cc31)C1=C(CCCC1=O)O2 (configuration not stated)

- MIC (Proteus mirabilis): 16 µg/mL (≈ 47.8 µM)
- MIC [1]: 1 µg/mL (≈ 2.99 µM)
SMILES: CC1(C)S[C@@H]2[C@H](NC(=O)Cc3ccccc3)C(=O)N2[C@H]1C(=O)O [PENICILLIN G]

- MIC (Staphylococcus aureus [8]): 16 µg/mL (≈ 31.6 µM)
- MIC (Bacillus subtilis [9]): 8 µg/mL (≈ 15.8 µM)
- MIC (Escherichia coli [10]): 64 µg/mL (≈ 126 µM)
SMILES: CC1(C)CC(=O)C2=C(C1)N(c1ccc(Cl)cc1)C(=O)C21C2=C(Nc3ccccc31)c1ccccc1C2=O (configuration not stated)

- IC50 (CCRF-CEM): 25.2 µM
- IC50 (SK-OV-3): 38.9 µM
SMILES: O=C1/C(=C/c2ccccc2)CNC[C@]12[C@@H](c1ccccc1)C1CCCN1[C@]21C(=O)Nc2ccccc21 (some centres not stated)
